Results taken from patent US20130045933A1, “ALOE-EMODIN DERIVATIVES AND USE THEREOF FOR THE TREATMENT OF CANCER” (RAMOT AT TEL-AVIV UNIVERSITY LTD., priority 2010, published 2013).
Where two headings read alike, the source gives them in different places.

Tests used:
[1] = system: OVCAR-3; assay: Cytotoxicity IC50 experiments, XTT kit, 24 h incubation; type: cell-based; settings: for IC50: 24 h incubation, XTT, read-out: IC-50 values after 24 h incubation, OVCAR-3; for viability at 20 µM: OVCAR-3, 20 μM, 24 h, read-out: cell viability
Experimental: (§1) Aloe-emodin was purchased from Molekula.
(§2) The cells were incubated for 24 h.

[2] = system: NAR cells; assay: as above; settings: for viability at 100 µM: read-out: cell viability; for IC50: DOX resistant, P-gp overexpressing
Experimental: as §1, §2
Finally, AEGs 13-16 were evaluated against DOX resistant ovarian cancer NAR cells in which resistance is conferred by overexpression of P-gp efflux pumps^[36]

[3] = system: supercoiled plasmid PBR322; assay: Supercoiled plasmid DNA unwinding gel experiment (DNA intercalation); type: binding
Experimental: Eppendorf tubes containing 3 μL supercoiled plasmid PBR322 (0.167 μg/ml), 14 μL tris-HCl-di-natrium-EDTA (TE X1) and 5 μL, AE, or one of the AEGs 1-4 or doxorubicin, at different concentrations were incubated for 15 min at 37° C. The samples were then added with 2 μl of loading buffer, and loaded on a 1% agarose gel in tris-HCl-boric-acid-di-natrium-EDTA (TBE X1). Samples were on the gel run for 15 min at 50 V and an additional 225 min at 70V. The gels were then immersed in a 0.5 mg/ml solution of ethidium bromide shaken for 20 min., washed with DDW for […]. DNA was visualized by UV illumination.
The DNA intercalation property of AEGs 13-16 was studied by applying the robust supercoiled plasmid DNA unwinding gel experiments protocol.^[23,37,38] Briefly, samples containing one of the AEGs 13-16, DOX or AE were pre-incubated with PBR322DNA plasmid, loaded on a 1% agarose gel, run for 4 hours at 70 volts and stained with ethidium bromide. […] At 200 μM.

[4] = system: MOLT-4; assay: Cytotoxicity IC50 experiments, XTT kit, 24 h incubation; settings: for IC50: read-out: IC-50 values after 24 h incubation, MOLT-4, 24 h incubation, XTT
Experimental: The cell lines used in this study were as follows: acute lymphoblastic leukemia (Molt-4), ovarian carcinoma (OVCAR3, NAR), breast adenocarcinomas (MCF7), B16 (murine melanoma), HCT 116 (human colon adenocarcinoma), and MCA 105 (murine fibrosarcoma), that were purchased from ATCC (Manassas, Va.). All cell lines except Molt-4 were grown in Dulbecco's modified Eagle's medium supplemented with 10% FBS, 1 mM L-glutamine, 100 U/ml penicillin, 100 μg/ml streptomycin. Molt-4 cells were grown in RPMI-1640 with the same supplements.
Cells (5×10^3/well) were plated into 96-well microtiter plates and were allowed to adhere (except for the leukemic cells) before treatment. After 24 hours, the plates were added with 5 μL of AEGs or AE or DOX solutions at different concentrations. The cells were incubated for 24 h. Cell viability was determined using an XTT kit protocol (Biological Industries). Optical density (OD) was read at 490 nm with a VERSAmax microplate ELISA reader (Molecular Devices, Sunnyvale, Calif., USA). IC50 values were determined as the concentrations in which the OD value of the tested compound reached 50% of the OD value of the control containing un-treated cells. All experiments were performed in triplicates and repeated three times. All cell lines were grown in Dulbecco's modified Eagle's medium (or RPMI-1640 for Molt-4 cells) supplemented with 10% FBS, 1 mM L-glutamine, 100 U/ml penicillin, 100 μg/ml streptomycin. Cells were maintained in a humidified chamber of 95% air 5% CO2 at 37° C.

[5] = system: B16 (murine melanoma); assay: Cytotoxicity assay of compounds 11 and 12 (XTT, % cytotoxicity)
Experimental: (§3) The respective cell type at 1×10^4 cells/well was incubated for 24 hours in 96-well plates and cell viability was determined using the 2,3-bis(2-methoxy-4-nitro-5-sulphophenyl)-2H-tetrazolium-5-carboxanilide (XTT) kit (Biological Industries, Israel). […] Optical density is directly proportional to the number of living cells in culture. Cytotoxicity (%) was calculated in the following way: [(absorbance of control cells−absorbance of drug-treated cells)/absorbance of control cells]×100. Results shown are averages of 3 repeats ±SE.

[6] = system: HCT 116 (human colon adenocarcinoma); assay: as above
Experimental: as §3

[7] = system: MCA 105 (murine fibrosarcoma); assay: as above
Experimental: as §3

[8] = system: Molt-4 (human T cell leukemia); assay: as above
Experimental: as §3

[9] = system: MCF-7; assay: Cytotoxicity IC50 experiments, XTT kit, 24 h incubation; settings: Homo sapiens, MCF7, 24 h, read-out: cell viability
Experimental: as §1, §2

[10] = cited from earlier work
[11] = system: MCF-7 cells; assay: Light microscopy study of treated cells; type: cell-based; settings: MCF-7, 20 μM, 24 hours, x400
Experimental: FIG. 9: Light microscopy (x400) pictures of MCF-7 cells: Cell cultures were incubated for 24 hours. (a) Untreated control cells (b) AE 20 μM (c), Dox 20 μM, (d) AEG 13 20 μM.
Cells micrographs were obtained using a light microscope (Olympus IX50-S8F2 inverted phase microscope) at x400 magnification.

[12] = system: DOX resistant NAR cells; assay: Fluorescent confocal microscopy study of cell permeability; type: cell-based; settings: 5 μM, two hour incubation
Experimental: Cells (1×10^5/well) were plated into 24-well microtiter plates and incubated over coverslips for 24 hours. The cells were then added with one of the AEGs or DOX or AE at a total sample concentration of 5 μM. After 2 hours of incubation, the cells were washed three times, using PBS×1 (0.5 ml per well), and incubated with paraformaldehyde (3.7% in PBS 0.5 ml per well). After 15 min at ambient temperature, the cells were washed twice using PBS×1 0.5 ml per well. Cells were shaken at 50 rpm for 5 min after each wash. The plasma membrane of the fixated cells was stained by incubation of the samples with 300 μl of DiIC18(5)-DS ([…]) at 4° C. After 20 min, the cells were washed twice using PBS×1 0.5 ml per well. Cells were shaken at 50 rpm for 5 min after each wash. Finally, the samples were placed on a microscope slide and fixed using 10 μl of mounting. The slides were observed using an Andor Revolution Imaging System equipped with a Yokogawa CSU-X1 Spinning Disk Unit and an iXon 897 back-illuminated EMCCD camera, and mounted on a custom made Olympus IX-Upright microscope at Ex/Em=488/525 nm for DOX and AE glycoside I and Ex/Em=640/685 nm for DiIC18 (5)-DS.
A possible explanation for the potency of the synthetic AEGs against. DOX resistant cells was provided using fluorescent confocal microscopy (FIG. 11). […]

[13] = read-out: IC-50 values after 24 h incubation, NAR, 24 h incubation, XTT
[14] = B16, 24 hours of incubation, E-1 at the highest concentration
[15] = HCT116, 24 hours of incubation, E-1 at the highest concentration
[16] = MCA 105, 24 hours of incubation, E-1 at the highest concentration
[17] = Molt-4, 24 hours of incubation, E-1 at the highest concentration
[18] = 24 h, read-out: IC-50 values after 24 h incubation, NAR, 24 h incubation, XTT

`CC1O[C@H](OCc2cc(O)c3c(c2)C(=O)c2cccc(O)c2C3=O)CC(N)[C@H]1O` (some centres unmarked) [AEG 14] showed an IC50 [1] of 6.4 ± 0.2 µM, a viability at 100 µM ([2]; 24 h) of 65% and an IC50 [2, 13] greater than 100 µM. The DNA shift effect ([3]; 200 μM) was “weak effect” and the IC50 [4] was 7.6 ± 1.6 µM.
With `NC1CC(OCc2cc(O)c3c(c2)C(=O)c2cccc(O)c2C3=O)OCC1O` [E-2, Aloe-Emodin connected through C-7 to beta 2-deoxy-3-deoxy-3-amino-L-xylopyranose] the “cytotoxicity, general outcome (FIG. 4B)” value [5, 14] was “much weaker effect”, the “cytotoxicity, general outcome (FIG. 4C)” value [6, 15] was “much weaker effect” and the “cytotoxicity, general outcome (FIG. 4D)” value [7, 16] was “much weaker effect”. For the same compound, the “cytotoxicity, general outcome (FIG. 4A)” value [8, 17] was “much weaker effect” and the “toxicities (cytotoxicity)” value ([8]; Molt-4, up to 8 hours of incubation) was “about 20%”.
In the case of `CC1O[C@@H](OCc2cc(O)c3c(c2)C(=O)c2cccc(O)c2C3=O)CC(N)[C@H]1O` (some centres unmarked) [AEG 15], the IC50 [1] is reported as 15.7 ± 0.8 µM, the IC50 [2, 13] is reported as 18 ± 1.3 µM and the IC50 [4] is reported as 5.4 ± 0.4 µM.
In the case of `NC1CC(OCc2cc(O)c3c(c2)C(=O)c2cccc(O)c2C3=O)OCC1O` [E-1, Aloe-Emodin connected through C-7 to alpha 2-deoxy-3-deoxy-3-amino-L-xylopyranose], the “cytotoxicity, general outcome (FIG. 4B)” value [5, 14] is reported as “much more effective than Alo”, the “cytotoxicity, general outcome (FIG. 4C)” value [6, 15] is reported as “much more effective than Alo” and the “cytotoxicity, general outcome (FIG. 4D)” value [7, 16] is reported as “much more effective than Alo”. For the same compound, the cytotoxicity ([8]; Molt-4, 100 μM, 4 hours of incubation) was “about 90%” and the “cytotoxicity, general outcome (FIG. 4A)” value [8, 17] was “much more effective than Alo”.
`O=C1c2cccc(O)c2C(=O)c2c(O)cc(CO)cc21` [AE, Aloe-emodin] showed an IC50 ([1]; Homo sapiens, OVCAR-3, 24 h) greater than 20 µM, a viability at 20 µM [9] of 77% and an IC50 [2, 18] greater than 100 µM. For the same compound, the viability at 100 µM ([2]; 24 h) was 78%, the “toxicities (cytotoxicity)” value ([8]; human) was “about 20%” and the “solubility in water and in physiological solutions” value [10] was “hardly soluble”. The cell viability ([4]; MOLT-4, 20 μM, 24 h) was 100% and the IC50 [4] was greater than 20 µM.
`COc1cccc2c1C(=O)c1c(O)c3c(c(O)c1C2=O)C[C@@](O)(C(=O)CO)C[C@@H]3O[C@H]1C[C@H](N)[C@H](O)[C@H](C)O1` [DOX, doxorubicin, reference compound] showed an IC50 ([1]; Homo sapiens, OVCAR-3, 24 h) greater than 20 µM, a viability at 20 µM ([1]; Homo sapiens) of 61% and a viability at 20 µM [9] of 83%. The IC50 [2, 18] was greater than 100 µM, the cell viability ([2]; NAR, 100 μM, 24 h) was “not affected at all” and the “cytotoxicity, general outcome (FIG. 4B)” value [5] was “much more effective than the other compounds”. For the same compound, the “cytotoxicity, general outcome (FIG. 4C)” value [6] was “much more effective than the other compounds”, the “cytotoxicity, general outcome (FIG. 4D)” value [7] was “much more effective than the other compounds” and the “cytotoxicity, general outcome (FIG. 4A)” value [8] was “much more effective than the other compounds”. For the same compound, the “toxicities (cytotoxicity)” value ([8]; human) was “about 20%”, the “cell numbers and cell morphology by light microscopy” value [11] was “became more spherical in shape and smaller in size” and the DNA shift effect ([3]; 20 μM) was “still significant”. For the same compound, the DNA shift effect ([3]; 200 μM) was “intense effect”, the “cellular accumulation (cell permeability)” value [12] was “accumulated mainly in the plasma membrane” and the IC50 [4] was 0.2 ± 0.07 µM.
Work on `CC1O[C@H](OCc2cc(O)c3c(c2)C(=O)c2cccc(O)c2C3=O)CC(N)[C@H]1O` (some centres unmarked) [AEG 16] yielded an IC50 [1] greater than 20 µM, a viability at 20 µM ([1]; Homo sapiens) of 60% and a viability at 20 µM [9] of 83%. The IC50 [2, 13] was 28.3 ± 2.3 µM and the IC50 [4] was 12.8 ± 0.7 µM.
With `CC1O[C@@H](OCc2cc(O)c3c(c2)C(=O)c2cccc(O)c2C3=O)CC(N)[C@H]1O` (some centres unmarked) [AEG 13] the IC50 [1] was 5.2 ± 0.1 µM, the “improvement in cytotoxic potency compared to DOX and AE” value [2] was “at least two orders of magnitude” and the IC50 [2, 13] was 8.6 ± 0.6 µM. For the same compound, the “cell numbers and cell morphology by light microscopy” value [11] was “a very small number of highly damaged cells was observed”, the DNA shift effect ([3]; 200 μM) was “most significant effect” and the “cellular accumulation (cell permeability)” value [12] was “intracellular accumulation”. It also gave an IC50 [4] of 5.8 ± 1.3 µM.
